Reference: patent US7691862B2, “Method and composition for treating periodontal disease” (Regena Therapeutics LC, priority 2003, dated 2010)
Read-outs that look alike come from different tables or passages of the source. Marks after values point to notes of the source that are not given here.

Key:
[1] = test system: mammalian calvarial cells; details: in vitro culture; cited from earlier work
[2] = test system: canine mandible alveolar bone; details: cited from earlier work
[3] = target: albumin (Homo sapiens, UniProt P02768); details: cited from earlier work
albumin, sequence (P02768 25-609, species assumed): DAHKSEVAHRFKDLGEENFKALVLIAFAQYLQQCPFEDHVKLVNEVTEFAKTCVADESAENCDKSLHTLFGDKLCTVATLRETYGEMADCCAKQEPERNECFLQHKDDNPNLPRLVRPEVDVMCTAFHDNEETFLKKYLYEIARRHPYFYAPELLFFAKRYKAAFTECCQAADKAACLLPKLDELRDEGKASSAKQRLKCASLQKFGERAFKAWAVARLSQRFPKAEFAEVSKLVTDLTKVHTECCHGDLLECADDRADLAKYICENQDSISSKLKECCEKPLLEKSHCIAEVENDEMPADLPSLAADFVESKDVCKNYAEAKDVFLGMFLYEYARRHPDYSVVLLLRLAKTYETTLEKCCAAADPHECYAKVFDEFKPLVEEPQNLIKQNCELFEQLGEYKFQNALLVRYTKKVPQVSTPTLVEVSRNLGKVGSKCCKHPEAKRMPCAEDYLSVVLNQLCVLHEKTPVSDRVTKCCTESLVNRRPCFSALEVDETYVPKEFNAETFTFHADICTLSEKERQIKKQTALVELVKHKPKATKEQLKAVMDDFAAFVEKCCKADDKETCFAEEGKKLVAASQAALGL

[4] = in vivo; cited from earlier work
[5] = test system: periodontal pockets of patients with moderate-to-advanced periodontitis; assay: Randomized double-blind placebo-controlled study: change in periodontal pocket probing depth after scaling, root planing and curettage; assay type: in vivo, human
Description: 1.1 Overall Study Design and Plan This was a randomized, double-blind, single-center, multiple-dose, parallel-group, placebo-controlled study. At baseline, patients presenting at Periodontal Specialists of Ames for the treatment of periodontitis were screened for the study. Patients were assessed using medical histories, dental histories, blood pressure, pulse, pregnancy tests (if female), periapical radiographs and periodontal examinations. Patients who met all of the inclusion and exclusion criteria, appeared in good health other than periodontitis, and who had documented moderate-to-advanced periodontitis with at least four destructive periodontal-diseased pockets (ranging from 5 to 12 mm in depth) were eligible for study participation. Each patient underwent a gross debridement, following which, he/she was randomized to one of four treatment groups:
Patients randomized to receive doxycycline (Groups B and C) were administered a loading dose of doxycycline 100 mg BID for one day and then instructed to take doxycycline 100 mg QD for nine consecutive days; patients in Groups A and D received matching doxycycline placebo for ten days.
On the last day of doxycycline/placebo administration, patients reported to the clinical research facility and underwent (under local anesthesia) dental sub-gingival scaling, root planing, and curettage on one side of the mouth. Following completion of these procedures, patients randomized to misoprostol (Groups C and D) received an application of a misoprostol paste (10 ug/site) and those randomized to placebo (Groups A and B) received placebo paste. Patients were instructed to apply the paste to each quadrant four times daily for the next week. One week later, patients returned to the clinical research facility and underwent sub-gingival scaling, root planing, and curettage on the other side of the mouth. The misoprostol/placebo paste was administered as described above. Patients were instructed to apply the paste to the affected teeth four times daily for an additional six weeks. They were also instructed to the proper use of the rubber tip for six weeks.
At two weeks post-treatment, patients were contacted for adverse event monitoring and compliance with study drug administration. Six weeks following the second sub-gingival scaling, planing, and curettage procedure, patients returned to the clinical research facility for periodontal and adverse event assessments. Dental prophylaxis, including periodontal maintenance was repeated at the three month intervals, with final assessments performed at 52 weeks post-treatment.
The initial dose of the misoprostol/placebo paste was applied by the periodontist, and all subsequent doses were applied by the patient. Each affected tooth was wiped with a 2×2 sponge to dry the tissue. Then 0.2 ml of the paste was dispensed from the 10.0 ml syringe onto the tip of the finger and applied to each affected tooth. The patient then sipped a little water and gently flushed the paste to gel it. Patients were instructed not to eat anything for at least one hour.
1.5.1.2.1. Periodontal Pocket Probing Depth Periodontal probing depths were measured at baseline, at six weeks post-treatment, and at 3, 6, 9 and 12 months post-treatment. More recently, a larger study at three weeks post treatment was performed as described in Example
To measure the periodontal pocket probing depth, a manual University of Michigan off-set probe marked in millimeters was inserted into the pocket with the long axis parallel to the long axis of the tooth. Insertion was continued to the base of the pocket with gentle pressure until a distinct resistance was felt.
The measurement from the tip of the probe to the gingival margin (GM-BP, gingival margin to the base of the pocket) was recorded in millimeters. On measurements of proximal sites the gingival margin may cross the probe at an angle, and the highest point on the side of the probe was read. […]

[6] = cited from earlier work
[7] = 6 Weeks post-treatment, baseline pocket depth 5 mm
[8] = 6 Weeks post-treatment, baseline pocket depth 6 mm
[9] = 6 Weeks post-treatment, baseline pocket depth 7 mm
[10] = 6 Weeks post-treatment, baseline pocket depth 8 mm
[11] = 6 Weeks post-treatment, baseline pocket depth 9 mm
[12] = 6 Weeks post-treatment, baseline pocket depth 10 mm
[13] = 6 Weeks post-treatment, baseline pocket depth ≦4 mm
[14] = 52 Weeks post-treatment, baseline pocket depth 5 mm
[15] = 52 Weeks post-treatment, baseline pocket depth 6 mm
[16] = 52 Weeks post-treatment, baseline pocket depth 7 mm
[17] = 52 Weeks post-treatment, baseline pocket depth 8 mm
[18] = 52 Weeks post-treatment, baseline pocket depth 9 mm
[19] = 52 Weeks post-treatment, baseline pocket depth 10 mm
[20] = 52 Weeks post-treatment, baseline pocket depth ≦4 mm

| Structure (SMILES) | Mean Changes in Pocket Depths Using Patient as Inference [5, 7] | Mean Changes in Pocket Depths Using Patient as Inference [5, 8] | Mean Changes in Pocket Depths Using Patient as Inference [5, 9] | Mean Changes in Pocket Depths Using Patient as Inference [5, 10] | Mean Changes in Pocket Depths Using Patient as Inference [5, 11] | Mean Changes in Pocket Depths Using Patient as Inference [5, 12] | Mean Changes in Pocket Depths Using Patient as Inference [5, 13] | Mean Changes in Pocket Depths Using Patient as Inference [5, 14] | Mean Changes in Pocket Depths Using Patient as Inference [5, 15] | Mean Changes in Pocket Depths Using Patient as Inference [5, 16] | Mean Changes in Pocket Depths Using Patient as Inference [5, 17] | Mean Changes in Pocket Depths Using Patient as Inference [5, 18] | Mean Changes in Pocket Depths Using Patient as Inference [5, 19] | Mean Changes in Pocket Depths Using Patient as Inference [5, 20] | also measured |
| --- | --- | --- | --- | --- | --- | --- | --- | --- | --- | --- | --- | --- | --- | --- | --- |
| CCCCC[C@H](O)/C=C/[C@H]1[C@H](O)CC(=O)[C@@H]1CCCCCCC(=O)O [PGE1, prostaglandin E1] | – | – | – | – | – | – | – | – | – | – | – | – | – | – | formation of mineralized nodules [1]: increases the formation of mineralized nodules; new bone formation; thickness and appositional rate of alveolar bone ([2]; local application, adult dogs (Marks 1988)): increases the thickness and appositional rate of alveolar bone; alveolar bone height, cementum and periodontal ligaments ([2]; local delivery, premolars and molars of adult dogs (Marks 1994)): increases alveolar bone height and regenerates cementum and periodontal ligaments |
| CCCCC(C)(O)C/C=C/[C@H]1[C@H](O)CC(=O)[C@@H]1CCCCCCC(=O)O (mixture of isomers) [Misoprostolic acid] | – | – | – | – | – | – | – | – | – | – | – | – | – | – | albumin bound [3]: approximately 85%; half-life [4]: about 30 minutes |
| C[C@H]1c2cccc(O)c2C(=O)C2=C(O)[C@]3(O)C(=O)C(C(N)=O)=C(O)[C@@H](N(C)C)[C@@H]3[C@@H](O)[C@@H]21 [Doxycycline] | 1.96* mm | 2.63* mm | 3.04* mm | 3.57* mm | 4.23* mm | 4.13 mm | 0.84 mm | 0.42 mm | 0.79 mm | 1.42 mm | 1.71 mm | 2.86 mm | 3.28 mm | −0.22* mm | improvement in pocket depth (from the Figures) ([5]; pocket depth originally 10 mm, Week 52): 3 mm; reduction in depth (from the Figures) ([5]; pocket depth originally 10 mm, at 6 weeks): ~5 mm |
| CCCC[C@@](C)(O)C/C=C/[C@H]1[C@H](O)CC(=O)[C@@H]1CCCCCCC(=O)OC (racemic) [Misoprostol, methyl-(11α, 13E)-11,16-dihydroxy-16-methyl-9-oxoprost-13-en-1-oate] | 1.57 mm | 2.13 mm | 2.68 mm | 2.84 mm | 4.46* mm | 4.70 mm | 0.58 mm | 1.76*† mm | 2.49† mm | 3.28*† mm | 3.90*† mm | 5.06*† mm | 4.75 mm | 0.75*† mm | improvements in pocket depths compared to scaling, root planning and curettage alone ([5]; 52 weeks post-treatment): statistically significant improvements; mean changes in pocket depths compared to doxycycline+placebo ([5]; 52 weeks post-treatment, Wilcoxon rank-sum): statistically significantly greater improvements; tooth mobility ([5]; along with the decreases in pocket depth): decreases in tooth mobility; patients requiring surgical intervention to stop the progression of the disease ([5]; in vivo): none of the patients; reduction in pocket depth ([5]; original pocket depth 10 mm or greater, after 6 weeks): 40-50%; storage stability ([6]; dissolved in absolute alcohol (ethanol) and frozen): stable for at least a year; storage stability ([6]; dry state, stabilized with hydroxypropyl methyl cellulose): a couple years; stability of creams ([6]; in the presence of water, breaks down to prostaglandin A): creams last approximately only one week |
